Data from article PMC8843171 (Journal of Enzyme Inhibition and Medicinal Chemistry, 2022).

Tests used:
Assay in all cases: stopped-flow CO2 hydrase assay
Assay type in all cases: biochemical
Settings in all cases: read-out: [drawing 1] / 1
hCA I = biological target: T1, hCA I (Homo sapiens, UniProt P00915)
T1 construct: gene CA1; recombinant, in-house
From the text: stopped-flow CO2 hydrase assay on hCA I

hCA VB = biological target: T2, hCA VB (Homo sapiens, UniProt Q9Y2D0)
T2 construct: gene CA5B; recombinant, in-house
From the text: stopped-flow CO2 hydrase assay on hCA VB

hCA XII = biological target: T3, hCA XII (Homo sapiens, UniProt O43570)
T3 construct: gene CA12; recombinant, in-house
From the text: stopped-flow CO2 hydrase assay on hCA XII

hCA VII = biological target: T4, hCA VII (Homo sapiens, UniProt P43166)
T4 construct: gene CA7; recombinant, in-house
From the text: stopped-flow CO2 hydrase assay on hCA VII

hCA XIV = biological target: T5, hCA XIV (Homo sapiens, UniProt Q9ULX7)
T5 construct: gene CA14; recombinant, in-house
From the text: stopped-flow CO2 hydrase assay on hCA XIV

hCA VI = biological target: T6, hCA VI (Homo sapiens, UniProt P23280)
T6 construct: gene CA6; recombinant, in-house
From the text: stopped-flow CO2 hydrase assay on hCA VI

hCA IX = biological target: T7, hCA IX (Homo sapiens, UniProt Q16790)
T7 construct: gene CA9; recombinant, in-house
From the text: stopped-flow CO2 hydrase assay on hCA IX

hCA II = biological target: T8, hCA II (Homo sapiens, UniProt P00918)
T8 construct: gene CA2; recombinant, in-house
From the text: stopped-flow CO2 hydrase assay on hCA II

hCA IV = biological target: T9, hCA IV (Homo sapiens, UniProt P22748)
T9 construct: gene CA4; recombinant, in-house
From the text: stopped-flow CO2 hydrase assay on hCA IV

hCA XIII = biological target: T10, hCA XIII (Homo sapiens, UniProt Q8N1Q1)
T10 construct: gene CA13; recombinant, in-house
From the text: stopped-flow CO2 hydrase assay on hCA XIII

hCA VA = biological target: T11, hCA VA (Homo sapiens, UniProt P35218)
T11 construct: gene CA5A; recombinant, in-house
From the text: stopped-flow CO2 hydrase assay on hCA VA

T1 sequence (P00915 2-261): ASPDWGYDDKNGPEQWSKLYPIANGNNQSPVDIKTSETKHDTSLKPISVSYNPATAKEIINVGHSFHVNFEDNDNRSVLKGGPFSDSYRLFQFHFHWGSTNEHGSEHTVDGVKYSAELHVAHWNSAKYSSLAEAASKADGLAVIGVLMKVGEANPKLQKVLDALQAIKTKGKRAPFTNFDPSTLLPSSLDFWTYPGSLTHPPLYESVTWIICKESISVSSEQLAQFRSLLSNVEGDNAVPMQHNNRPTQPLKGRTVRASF
T4 sequence (P43166 whole entry): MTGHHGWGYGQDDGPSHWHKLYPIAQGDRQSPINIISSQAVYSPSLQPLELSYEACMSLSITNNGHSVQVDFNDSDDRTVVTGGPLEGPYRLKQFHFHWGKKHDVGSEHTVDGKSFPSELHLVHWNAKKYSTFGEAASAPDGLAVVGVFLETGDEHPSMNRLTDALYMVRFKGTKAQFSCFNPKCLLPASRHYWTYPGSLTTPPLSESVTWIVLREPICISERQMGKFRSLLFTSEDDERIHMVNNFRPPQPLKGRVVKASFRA
T2 sequence (Q9Y2D0 34-317): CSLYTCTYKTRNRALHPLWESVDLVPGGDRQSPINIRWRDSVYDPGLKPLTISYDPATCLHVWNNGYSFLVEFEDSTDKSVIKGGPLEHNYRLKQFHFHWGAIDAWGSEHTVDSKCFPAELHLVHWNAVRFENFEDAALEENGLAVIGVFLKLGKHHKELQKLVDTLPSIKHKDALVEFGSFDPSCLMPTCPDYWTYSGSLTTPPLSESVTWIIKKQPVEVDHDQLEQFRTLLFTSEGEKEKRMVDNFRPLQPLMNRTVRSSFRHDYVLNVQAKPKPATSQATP
T11 sequence (P35218 39-305): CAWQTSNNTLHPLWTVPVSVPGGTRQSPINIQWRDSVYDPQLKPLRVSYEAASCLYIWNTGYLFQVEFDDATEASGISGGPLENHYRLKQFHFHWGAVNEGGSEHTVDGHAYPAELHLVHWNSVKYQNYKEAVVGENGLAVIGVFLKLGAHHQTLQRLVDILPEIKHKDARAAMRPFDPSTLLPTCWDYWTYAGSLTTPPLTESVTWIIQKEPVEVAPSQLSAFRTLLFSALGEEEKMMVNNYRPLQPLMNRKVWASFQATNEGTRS
T10 sequence (Q8N1Q1 whole entry): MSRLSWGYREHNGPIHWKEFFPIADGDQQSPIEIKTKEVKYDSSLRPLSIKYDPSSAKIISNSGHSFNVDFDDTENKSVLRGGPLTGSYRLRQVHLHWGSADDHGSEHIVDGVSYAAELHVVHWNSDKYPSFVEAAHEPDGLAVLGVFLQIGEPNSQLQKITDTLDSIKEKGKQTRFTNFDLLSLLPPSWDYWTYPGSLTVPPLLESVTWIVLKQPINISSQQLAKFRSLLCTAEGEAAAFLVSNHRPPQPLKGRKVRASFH
T6 sequence (P23280 18-308): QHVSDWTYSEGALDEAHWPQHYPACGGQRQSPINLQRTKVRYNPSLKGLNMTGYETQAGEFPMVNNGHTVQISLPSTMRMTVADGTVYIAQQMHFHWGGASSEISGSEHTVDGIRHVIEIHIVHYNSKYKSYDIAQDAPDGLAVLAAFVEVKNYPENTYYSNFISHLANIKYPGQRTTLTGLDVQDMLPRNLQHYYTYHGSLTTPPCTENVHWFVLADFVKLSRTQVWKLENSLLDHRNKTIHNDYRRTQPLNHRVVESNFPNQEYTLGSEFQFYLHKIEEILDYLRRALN
T5 sequence (Q9ULX7 16-290 limits assumed): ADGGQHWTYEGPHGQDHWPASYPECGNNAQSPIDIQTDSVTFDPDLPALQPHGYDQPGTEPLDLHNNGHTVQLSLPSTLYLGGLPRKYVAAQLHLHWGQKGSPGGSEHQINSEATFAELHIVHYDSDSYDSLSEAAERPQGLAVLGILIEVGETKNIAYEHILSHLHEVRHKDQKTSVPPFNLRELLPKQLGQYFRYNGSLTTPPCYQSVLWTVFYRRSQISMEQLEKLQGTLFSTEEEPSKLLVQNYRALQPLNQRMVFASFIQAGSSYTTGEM
T9 sequence (P22748 19-284): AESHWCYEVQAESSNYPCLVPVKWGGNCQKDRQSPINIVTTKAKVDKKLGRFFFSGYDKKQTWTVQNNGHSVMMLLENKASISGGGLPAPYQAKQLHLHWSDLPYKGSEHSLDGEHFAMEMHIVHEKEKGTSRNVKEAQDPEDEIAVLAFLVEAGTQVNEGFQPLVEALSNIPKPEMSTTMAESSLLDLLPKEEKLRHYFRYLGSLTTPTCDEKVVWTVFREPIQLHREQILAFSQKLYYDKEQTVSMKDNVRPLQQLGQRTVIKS
T3 sequence (O43570 25-354): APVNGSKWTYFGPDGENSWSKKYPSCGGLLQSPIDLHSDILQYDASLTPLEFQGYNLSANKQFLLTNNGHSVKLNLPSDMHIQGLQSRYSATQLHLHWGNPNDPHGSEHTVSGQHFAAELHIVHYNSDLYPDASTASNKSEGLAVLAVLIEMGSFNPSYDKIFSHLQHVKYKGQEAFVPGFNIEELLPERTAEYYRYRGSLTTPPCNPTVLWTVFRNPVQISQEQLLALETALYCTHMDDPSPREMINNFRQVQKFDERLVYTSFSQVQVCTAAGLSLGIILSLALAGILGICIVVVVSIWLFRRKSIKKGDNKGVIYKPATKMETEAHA

**Q.** Which Ki (hCA I) does the source give for `Cc1cnc(C(=O)O)c[n+]1[O-]` [compound 1, Acipimox] here?
**A.** 3.3 µM

**Q.** What about the Ki (hCA VB) of the same compound?
**A.** 2.8 µM

**Q.** And the Ki (hCA XII)?
**A.** 8.4 µM

**Q.** And the Ki (hCA VII)?
**A.** 9.2 µM

**Q.** And the Ki (hCA XIV)?
**A.** 5.9 µM

**Q.** What about the Ki (hCA VI) of the same compound?
**A.** 7 µM

**Q.** What about the Ki (hCA IX) of the same compound?
**A.** 6.3 µM

**Q.** And the Ki (hCA II)?
**A.** 7.5 µM

**Q.** What about the Ki (hCA IV) of the same compound?
**A.** 8.8 µM

**Q.** And the Ki (hCA XIII)?
**A.** 87 µM

**Q.** And the Ki (hCA VA)?
**A.** 7.5 µM
